From patent US11254663B2 (BRISTOL-MYERS SQUIBB COMPANY, priority 2019, dated 2022)

Molecular target: FXR (Homo sapiens (Human), UniProt Q96RI1)
Assay: transient human FXR/Gal4-luciferase reporter assay
Type: cell-based
Conditions: not given
Summary of the method: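 Compound exposure ran overnight at 37 °C and activity was measured as luminescence with Steady-Glo reagent. The cells were a HEK293 line stably expressing firefly luciferase under five Gal4 response elements. They were transiently transfected, one night beforehand, with a plasmid encoding Gal4 DNA-binding domain fused to the human FXR ligand-binding domain.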

FXR, sequence (Q96RI1 262-486): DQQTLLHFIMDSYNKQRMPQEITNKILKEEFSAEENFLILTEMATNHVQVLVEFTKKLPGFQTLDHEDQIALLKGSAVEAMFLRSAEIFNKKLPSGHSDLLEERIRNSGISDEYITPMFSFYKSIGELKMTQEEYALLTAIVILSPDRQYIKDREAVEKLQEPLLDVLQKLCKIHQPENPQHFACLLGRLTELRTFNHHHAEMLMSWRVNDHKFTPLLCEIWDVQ

SMILES	EC50 [nM]
CC(C)(C)c1nc(C23CCC(CN(C(=O)C45CC(F)(C4)C5)c4cncc(-c5ccc(OC(F)F)cc5)c4)(CC2)CC3)no1 [Example 483, N-((4-(5-(tert-butyl)-1,2,4-oxadiazol-3-yl)bicyclo[2.2.2]octan-1-yl)methyl)-N-(5-(4-(difluoromethoxy)phenyl)pyridin-3-yl)-3-fluorobicyclo[1.1.1]pentane-1-carboxamide]	255
CC(C)(C)c1nc(C23CCC(CN(C(=O)C45CC(F)(C4)C5)c4cncc(-c5ccc6[nH]c(=O)oc6c5)c4)(CC2)CC3)no1 [Example 479, N-((4-(5-(tert-butyl)-1,2,4-oxadiazol-3-yl)bicyclo[2.2.2]octan-1-yl)methyl)-3-fluoro-N-(5-(2-oxo-2,3-dihydrobenzo[d]oxazol-6-yl)pyridin-3-yl)bicyclo[1.1.1]pentane-1-carboxamide]	367
O=C(N(CC12CCC(c3noc(C(F)F)n3)(CC1)CC2)c1cccc(-c2cnc(C(F)(F)F)nc2)c1)C12CC(F)(C1)C2 [Example 464, N-((4-(5-(difluoromethyl)-1,2,4-oxadiazol-3-yl)bicyclo[2.2.2]octan-1-yl)methyl)-3-fluoro-N-(3-(2-(trifluoromethyl)pyrimidin-5-yl)phenyl)bicyclo[1.1.1]pentane-1-carboxamide]	654

Same assay, conditions: Gal4-hFXR fusion construct, HEK293 reporter cells; response relative to 8 μM GW-4064

SMILES	EC50 [nM]
CC(C)(C)c1nc(C23CCC(CN(C(=O)C45CC(F)(C4)C5)c4ccnc(-c5cnc(C6CC6)nc5)c4)(CC2)CC3)no1 [Example 597, N-((4-(5-(tert-butyl)-1,2,4-oxadiazol-3-yl)bicyclo[2.2.2]octan-1-yl)methyl)-N-(2-(2-cyclopropylpyrimidin-5-yl)pyridin-4-yl)-3-fluorobicyclo[1.1.1]pentane-1-carboxamide]	226
CC(C)(O)c1ccc(-c2cccc(N(CC34CCC(c5noc(C(C)(C)F)n5)(CC3)CC4)C(=O)[C@H]3C[C@@](C)(O)C3)c2)cc1 [Example 577, (cis)-N-((4-(5-(2-fluoropropan-2-yl)-1,2,4-oxadiazol-3-yl)bicyclo[2.2.2]octan-1-yl)methyl)-3-hydroxy-N-(4′-(2-hydroxypropan-2-yl)-[1,1′-biphenyl]-3-yl)-3-methylcyclobutane-1-carboxamide]	23
COc1ccc(-c2cccc(N(CC34CCC(c5nnc(C6CC6)o5)(CC3)CC4)C(=O)C34CC(F)(C3)C4)c2)cn1 [Example 343, N-((4-(5-cyclopropyl-1,3,4-oxadiazol-2-yl)bicyclo[2.2.2]octan-1-yl)methyl)-3-fluoro-N-(3-(6-methoxypyridin-3-yl)phenyl)bicyclo[1.1.1]pentane-1-carboxamide]	154
CC1(c2nc(C34CCC(CN(C(=O)C56CC(F)(C5)C6)c5cccc(-c6ccc(NS(C)(=O)=O)cc6)c5)(CC3)CC4)no2)CC1 [Example 398, 3-fluoro-N-((4-(5-(1-methylcyclopropyl)-1,2,4-oxadiazol-3-yl)bicyclo[2.2.2]octan-1-yl)methyl)-N-(4′-(methylsulfonamido)-[1,1′-biphenyl]-3-yl)bicyclo[1.1.1]pentane-1-carboxamide]	93
O=C(N(CC12CCC(c3nc(C4CC4)no3)(CC1)CC2)c1cccc(-c2cnc3nc(C4CC4)sc3c2)c1)C12CC(F)(C1)C2 [Example 276, N-((4-(3-cyclopropyl-1,2,4-oxadiazol-5-yl)bicyclo[2.2.2]octan-1-yl)methyl)-N-(3-(2-cyclopropylthiazolo[4,5-b]pyridin-6-yl)phenyl)-3-fluorobicyclo[1.1.1]pentane-1-carboxamide]	77.5
CC1(c2nc(C34CCC(CN(C(=O)C56CC(F)(C5)C6)c5cccc(-c6cnc(C(F)(F)F)nc6)c5)(CC3)CC4)no2)CC1 [Example 404, 3-fluoro-N-((4-(5-(1-methylcyclopropyl)-1,2,4-oxadiazol-3-yl)bicyclo[2.2.2]octan-1-yl)methyl)-N-(3-(2-(trifluoromethyl)pyrimidin-5-yl)phenyl)bicyclo[1.1.1]pentane-1-carboxamide]	221
N#Cc1cc2c(nc1-c1cccc(N(CC34CCC(c5nc(C6CC6)no5)(CC3)CC4)C(=O)C34CC(F)(C3)C4)c1)CCOC2 [Example 328, N-(3-(3-cyano-7,8-dihydro-5H-pyrano[4,3-b]pyridin-2-yl)phenyl)-N-((4-(3-cyclopropyl-1,2,4-oxadiazol-5-yl)bicyclo[2.2.2]octan-1-yl)methyl)-3-fluorobicyclo[1.1.1]pentane-1-carboxamide]	339
CC(C)Oc1ccc(-c2cccc(N(CC34CCC(c5cc(C6(F)CC6)nn5C)(CC3)CC4)C(=O)OC(C)(C)C(F)(F)F)c2)cc1 [Example 655, 1,1,1-trifluoro-2-methylpropan-2-yl ((4-(3-(1-fluorocyclopropyl)-1-methyl-1H-pyrazol-5-yl)bicyclo[2.2.2]octan-1-yl)methyl)(4′-isopropoxy-[1,1′-biphenyl]-3-yl)carbamate]	819
O=C(N(CC12CCC(c3nc(C4CC4)no3)(CC1)CC2)c1cccc(-c2cc(F)c3nccn3c2)c1)C12CC(F)(C1)C2 [Example 317, N-((4-(3-cyclopropyl-1,2,4-oxadiazol-5-yl)bicyclo[2.2.2]octan-1-yl)methyl)-3-fluoro-N-(3-(8-fluoroimidazo[1,2-a]pyridin-6-yl)phenyl)bicyclo[1.1.1]pentane-1-carboxamide]	887
CC(F)(F)c1nc(C23CCC(CN(C(=O)OC(C)(C)C(F)(F)F)c4cc(-c5ccc(OC(F)(F)Cl)cc5)ccn4)(CC2)CC3)no1 [Example 615, 1,1,1-trifluoro-2-methylpropan-2-yl (4-(4-(chlorodifluoromethoxy)phenyl)pyridin-2-yl)((4-(5-(1,1-difluoroethyl)-1,2,4-oxadiazol-3-yl)bicyclo[2.2.2]octan-1-yl)methyl)carbamate]	473
O=C(N(CC12CCC(c3nc(C4CC4)no3)(CC1)CC2)c1cccc(-c2cccc(OC(F)(F)F)c2)c1)C12CC(F)(C1)C2 [Example 259, N-((4-(3-cyclopropyl-1,2,4-oxadiazol-5-yl)bicyclo[2.2.2]octan-1-yl)methyl)-3-fluoro-N-(3′-(trifluoromethoxy)-[1,1′-biphenyl]-3-yl)bicyclo[1.1.1]pentane-1-carboxamide]	268
Cn1nc(C2CC2)cc1C12CCC(CN(C(=O)C34CC(F)(C3)C4)c3cc(-c4ccc(OC(F)F)cc4)ccn3)(CC1)CC2 [Example 545, N-((4-(3-cyclopropyl-1-methyl-1H-pyrazol-5-yl)bicyclo[2.2.2]octan-1-yl)methyl)-N-(4-(4-(difluoromethoxy)phenyl)pyridin-2-yl)-3-fluorobicyclo[1.1.1]pentane-1-carboxamide]	115
CCOc1ncc(-c2ccnc(N(CC34CCC(c5nc(C6CC6)no5)(CC3)CC4)C(=O)C34CC(F)(C3)C4)c2)cn1 [Example 548, N-((4-(3-cyclopropyl-1,2,4-oxadiazol-5-yl)bicyclo[2.2.2]octan-1-yl)methyl)-N-(4-(2-ethoxypyrimidin-5-yl)pyridin-2-yl)-3-fluorobicyclo[1.1.1]pentane-1-carboxamide]	111
CC(C)(C)c1nc(C23CCC(CN(C(=O)C45CC(F)(C4)C5)c4cccc(-c5ncc(OC(F)F)cn5)c4)(CC2)CC3)no1 [Example 452, N-((4-(5-(tert-butyl)-1,2,4-oxadiazol-3-yl)bicyclo[2.2.2]octan-1-yl)methyl)-N-(3-(5-(difluoromethoxy)pyrimidin-2-yl)phenyl)-3-fluorobicyclo[1.1.1]pentane-1-carboxamide]	17
CC(C)(O)c1ccc(-c2cccc(N(CC34CCC(c5noc(C(C)(C)F)n5)(CC3)CC4)C(=O)[C@H]3C[C@](O)(C(F)(F)F)C3)n2)cc1 [Example 595, (cis)-N-((4-(5-(2-fluoropropan-2-yl)-1,2,4-oxadiazol-3-yl)bicyclo[2.2.2]octan-1-yl)methyl)-3-hydroxy-N-(6-(4-(2-hydroxypropan-2-yl)phenyl)pyridin-2-yl)-3-(trifluoromethyl)cyclobutane-1-carboxamide]	64
CC(C)(F)c1nc(C23CCC(CN(C(=O)OC(C)(C)C(F)(F)F)c4cccc(-c5ccc(C6(C#N)CC6)c(F)c5)c4)(CC2)CC3)no1 [Example 591, 1,1,1-trifluoro-2-methylpropan-2-yl (4′-(1-cyanocyclopropyl)-3′-fluoro-[1,1′-biphenyl]-3-yl)((4-(5-(2-fluoropropan-2-yl)-1,2,4-oxadiazol-3-yl)bicyclo[2.2.2]octan-1-yl)methyl) carbamate]	77
CCOc1ncc(-c2cccc(N(CC34CCC(c5cc(C6CC6)n(C)n5)(CC3)CC4)C(=O)C34CC(F)(C3)C4)c2)cn1 [Example 407, N-((4-(5-cyclopropyl-1-methyl-1H-pyrazol-3-yl)bicyclo[2.2.2]octan-1-yl)methyl)-N-(3-(2-ethoxypyrimidin-5-yl)phenyl)-3-fluorobicyclo[1.1.1]pentane-1-carboxamide]	209
Cc1nc2ncc(-c3cccc(N(CC45CCC(c6nc(C(C)C)no6)(CC4)CC5)C(=O)C45CC(F)(C4)C5)c3)cc2s1 [Example 389, 3-fluoro-N-((4-(3-isopropyl-1,2,4-oxadiazol-5-yl)bicyclo[2.2.2]octan-1-yl)methyl)-N-(3-(2-methylthiazolo[4,5-b]pyridin-6-yl)phenyl)bicyclo[1.1.1]pentane-1-carboxamide]	61
COc1cc(-c2cccc(N(CC34CCC(C(=O)NC5CC5)(CC3)CC4)C(=O)C34CC(F)(C3)C4)c2)ccn1 [Example 570, N-cyclopropyl-4-((3-fluoro-N-(3-(2-methoxypyridin-4-yl)phenyl)bicyclo[1.1.1]pentane-1-carboxamido)methyl)bicyclo[2.2.2]octane-1-carboxamide]	926
Cc1cn2cc(-c3cccc(N(CC45CCC(c6nc(C7CC7)no6)(CC4)CC5)C(=O)C45CC(F)(C4)C5)c3)c(C)cc2n1 [Example 320, N-((4-(3-cyclopropyl-1,2,4-oxadiazol-5-yl)bicyclo[2.2.2]octan-1-yl)methyl)-N-(3-(2,7-dimethylimidazo[1,2-a]pyridin-6-yl)phenyl)-3-fluorobicyclo[1.1.1]pentane-1-carboxamide]	493
